The results in this text go back to article PMC7708037, “Targeting OGG1 arrests cancer cell proliferation by inducing replication stress” (Nucleic Acids Research, 2020).

Assay [1] has as its system OGG1 substrate lesions in A3 cells. The experiment in a line: OGG1-modified Comet assay. The conditions noted are these: 10 μM, 72 h. It is filed as cell-based, human. Here is the method: 8-oxodG detection in genomic DNA through LC–MS/MS ([39]) and single-cell electrophoresis ([40]) were performed as described.
Figure 5. Effect of TH5487 on DNA lesions, DNA damage markers and DNA replication. (A) 8-oxodG accumulation in A3 cells. A3 cells were treated with 20 mM KBrO3 for 1 h or with 10 μM TH5487 for the indicated times, and the amount of genomic 8-oxodG was quantified with LC-MS/MS. Data are average ±SD of five replicates from two independent experiments. (B) Comet assay. A3 cells were treated with 10 μM TH5487 for 72 h and strand-breaks and OGG1 substrate lesions were analyzed with the OGG1-modified Comet assay. Representative images of cells are shown. (C) Violin blot of Comet tail moment. Cells were treated as in B, and the tail moment of the cells were analyzed using blinded automatic analysis (n = 200 per condition from two independent experiments). The full line indicates median, and the dotted lines quartiles. (D) Violin blot of phosphorylated γH2AX intensity. A3 cells were treated with 0.1% DMSO or 10 μM TH5487 for the indicated times and stained for phosphorylated γH2AX. […] At least 33 000 nuclei per group were quantified from three independent experiments. […] At least 300 forks were scored per condition. Statistical significance was determined using unpaired, two-sided t-tests (**P < 0.01, ***P < 0.001 and ****P < 0.0001; ns, non-significant).

Another assay has as its system A3 xenograft tumors. The experiment in a line: Mouse xenograft experiment. It is filed as in vivo. The conditions noted are these: A3 subcutaneous tumors in NOD-SCID mice, oral 20 mg/kg, increased to 40 mg/kg. As to the method: Animal experiments were conducted as per the European directive, ethical guideline and regulations of the regional animal ethical committee Stockholm 2010/63 (N8914). Upon arrival to animal facility, animals were acclimatized in the animal house for a week with ad lib food and water, with a 12 h light cycle and the temperature and humidity set according to laboratory animal guidelines and regulations. For the xenograft experiment involving inducible shRNA, 1 × 10^7 non-targeting luciferase transfected A3 cells in 50% matrigel in PBS were injected into flank region of BALB/c nude mice. Later, mice from non-targeting and shRNA groups were randomly divided into two groups containing eight mice per group. […] Tumor volume was measured using calipers (length × 0.52 × width × width) and bioluminescence images were taken using an IVIS spectrum in vivo imaging system (Perkin-Elmer) after intraperitoneal injection of D-luciferin (150 mg/kg in PBS). […] Following lysis by three freeze-thaw cycles, samples were centrifuged at 20 000 × g for 30 min, and OGG1 in the supernatant was detected by immunoblotting. […]
Figure 7. […] Tumors were excised following termination, and TH5487 target engagement was analyzed by cellular thermal shift assay, using an antibody specific for the human OGG1 protein. […]

Consider `O=C(Nc1ccc(I)cc1)N1CCC(n2c(=O)[nH]c3c(Br)cccc32)CC1` [TH5487], for which the “Increase in OGG1-induced tail length (Comet)” value in assay [1] was roughly 50%. Also, the Xenograft growth inhibition result in the assay with A3 xenograft tumors was “not able to detect xenograft growth inhibition”.
